Assay results reported in patent US8962576B2, “Compositions and method for improving endothelial function and cardiovascular health” (Natreon, Inc., priority 2012, dated 2015).
“And” between values parts separate entries of the source, which are not always exact repeats. Equal entries are not always repeated.

Legend:
Assay type in all cases: in vivo, human
Type 2 Diabetic Subjects [1] = test: Endothelial function: reflection index (RI), salbutamol challenge test, study (a); settings: Sensoril or Capros 250 mg twice daily, Atorvastatin 10 mg at night; for Abs Change in RI(%) Post Salbutamol challenge: n = 10
From the text: Procedure for Assessment of Endothelial Function by Determination of Reflection Index (RI).
A salbutamol (albuterol) challenge test employing digital volume plethysmography was used to assess endothelial function as reported by Chowienczyk et al., “Photoplethysmographic assessment of pulse wave reflection: blunted response to endothelium dependant beta 2-adrenergic vasodilation in type 2 diabetes mellitus,” J. Am. Coll. Cardiol. (1999 December) 34(7):2007-14; and Naidu, et al., “Comparison of two β2 adrenoceptor agonists by different routes of administration to assess human endothelial function,” Indian J. Pharmacol. (2007) 39:168-9. The patients were examined in supine position after 5 minutes of rest. A digital volume pulse (DVP) was obtained using a photo plethysmograph (Pulse Trace PCA2, PT200, Micro Medical, Gallingham, Kent, UK) transmitting infrared light at 940 nm, placed on the index finger of the right hand. The signal from the plethysmograph was digitized using a 12 bit analogue to digital converter with a sampling frequency of 100 Hz. DVP waveforms were recorded over 20 second period and the height of the late systolic/early diastolic portion of the DVP was expressed as a percentage of the amplitude of the DVP to yield the reflection index (RI), per the procedure described in detail by Millasseau et al., “Determination of age related increases in large artery stiffness by digital pulse contour analysis,” Clinical Science (2002) 103: 371-377. Three DVP recordings were taken, and measurements of reflection index (RI) were calculated and the mean value was determined. Patients were then administered 400 μg of salbutamol by inhalation. After 15 minutes three measurements of RI were obtained again and the difference in mean RI before and after administration of salbutamol was used for assessing endothelial function. A change of ≦6% in RI post-salbutamol was considered as endothelial dysfunction.

platelet aggregation = test: Platelet aggregation with ADP, dual channel aggregometer, study (a)
Experimental: Evaluation of Platelet Aggregation.
The platelet aggregation was determined by the following procedure using Wheecon chronologue dual channel platelet aggregometer (Wheecon Instruments Pvt. Ltd., Chemai, Tamilnadu, India). The percentage decrease in platelet aggregation was recorded at baseline and 3 hours post treatment. Approximately 9 ml of blood sample was collected in a 10 ml plastic test tube containing 1 ml of 3.8% Sodium Citrate from the cubital vein of the subject at baseline and after 3 hours post treatment in all the groups. The test was performed immediately within a time period of one and half hours from collection. The samples were centrifuged at 800 rpm for 15 minutes to obtain a platelet-rich plasma. A portion of the same sample was centrifuged at 2500 rpm for 10 minutes so as to get a platelet-poor plasma sample. The aggregometer was switched about 30 minutes before the test to allow the heating block to warm up to 37° C. Then the test was performed in duplicate by taking 0.5 ml of platelet-rich plasma using 5 μl of adenosine di-phosphate (ADP) solution (2 μgm/ml) in cuvettes containing magnetic stir bars. The speed of stir bars were adjusted at 1200 rpm so as to facilitate the aggregation of the platelets. The platelet-poor plasma sample was kept as reference. The readings were recorded at baseline and after treatment with ADP. The percentage aggregation at baseline and the percentage inhibition of platelet aggregation on post treatment with all the four treatments was calculated.

Type 2 Diabetic Subjects [2] = test: Other cardiovascular pharmacodynamic parameters (AIx, SEVR, ABI, PWV, CO, SVR), study (c); settings: CAPROS 250 mg twice daily, Atorvastatin 10 mg daily, n = 20
Experimental: The augmentation index (AIx, defined as augmented pressure divided by pulse pressure and expressed as a percentage) is thus a composite measure of the magnitude of wave reflections and arterial stiffness, which affects timing of wave reflections. Because the augmentation index is influenced by changes in heart rate (HR), it is also accordingly corrected (AIx@75). The augmentation index was measured by using a validated, commercially available system (SphygmoCor; AtCor Medical, Sydney, Australia) that employs the principle of applanation tonometry and appropriate acquisition and analysis software for noninvasive recording and analysis of the arterial pulse. […] Waveforms of radial pressure were calibrated according to sphygmomanometric systolic and diastolic pressure measured in the brachial artery because there is practically negligible pressure pulse amplification between the brachial and the radial artery.
The subendocardial viability index, an indicator of myocardial workload and perfusion (O2 supply vs. demand) was calculated as the ratio of the integral of diastolic pressure and time to the integral of systolic pressure and time.
Brachial-ankle pulse wave velocity (baPWV) is also used to evaluate arterial stiffness. Pulse wave velocity is the speed at which the blood pressure pulse travels from the heart to the peripheral artery after blood rushes out during contraction. It is mainly used to evaluate stiffness of the artery wall. Pulse wave velocity increases with stiffness of the arteries. The PTT (Pulse Transit Time) of each segment is calculated from the waveform taken from each sensor. Pulse wave velocity is defined in Equation (1): […]
Brachial Ankle Pulse Wave Velocity (baPWV), Ankle Brachial Index (ABI) and Blood Pressure (BP) were measured using an automatic waveform analyzer (model BP-203 RPE; Colin Medical Technology, Komaki, Japan). Measurements were taken with patients lying in a supine position after 5 minutes of rest in that position. Occlusion and monitoring cuffs were placed snugly around both sites of the upper and lower extremities of patients. Pressure waveforms of the brachial and tibial arteries were then recorded simultaneously by an oscillometric method. Measurement of right and left baPWV was obtained for an average of 10 seconds. The average of left and right baPWV will be used for analysis.
Recording of cardiac output (CO) was performed using L&T Nivomon monitor (Larsen & Toubro Ltd., Mumbai, India). Noninvasive continuous cardiac output monitor with peripheral blood flow measurement option. This equipment is very useful and versatile. It calculates many cardiac parameters directly including cardiac output. It works on the features of impedance plethysmography principle and has tetrapolar configuration. The advantage is that this equipment directly calculates the cardiac output along with other parameters using the pulse wave.
After screening, all the eligible subjects were randomized to receive either one of the four treatments for a duration of 12 weeks, as follows.
The clinical measurements and pharmacodynamic tests were performed as described above in studies (a) or (b), unless otherwise stated.

CC(C)c1c(C(=O)Nc2ccccc2)c(-c2ccccc2)c(-c2ccc(F)cc2)n1CC[C@@H](O)C[C@@H](O)CC(=O)O [Atorvastatin]
Abs Change in RI(%) Post Salbutamol challenge (Type 2 Diabetic Subjects [1]; Post treatment, 12 weeks): −11.04% and −11.04 ± 5.48 %
Abs Change in RI(%) Post Salbutamol challenge (Type 2 Diabetic Subjects [1]; Pre treatment): −2.45% and −2.45 ± 0.64%
Mean % change in Abs Change in RI (%) Post Salbutamol challenge (Type 2 Diabetic Subjects [1]; after 12 weeks of treatment): 336.1 ± 235.2%
% Inhibition of Platelet Aggregation (platelet aggregation; 3 hours post treatment, ADP, n = 10): 7.11%
platelet aggregation (platelet aggregation; Post treatment, 3 hours post treatment, ADP, n = 10): 62.00±12.81%
platelet aggregation (platelet aggregation; Pre treatment (baseline), ADP, n = 10): 66.50±11.00%
reduction of ADP induced platelet aggregation (platelet aggregation; earlier study, results in Table V): did not produce significant reduction
Absolute change in ABI (Type 2 Diabetic Subjects [2]; 12 weeks): 0.08 ± 0.06
Absolute change in AIx (Type 2 Diabetic Subjects [2]; 12 weeks): −12.14 ± 5.44%
Absolute change in CO (Type 2 Diabetic Subjects [2]; 12 weeks): 0.84 ± 0.43 lt/min
Absolute change in PWV (Type 2 Diabetic Subjects [2]; 12 weeks): −175.5 ± 110.82 cm/s
Absolute change in SEVR (Type 2 Diabetic Subjects [2]; 12 weeks): 11.09 ± 6.51%
Absolute change in SVR (Type 2 Diabetic Subjects [2]; 12 weeks): −182.3 ± 109.61 dyne · sec/cm^5
ABI (Type 2 Diabetic Subjects [2]; Post TT, 12 weeks): 1.10 ± 0.04$
AIx (Type 2 Diabetic Subjects [2]; Post TT, 12 weeks): 123.4 ± 13.4$ %
CO (Type 2 Diabetic Subjects [2]; Post TT, 12 weeks): 5.15 ± 0.47$ lt/min
PWV (Type 2 Diabetic Subjects [2]; Post TT, 12 weeks): 1346 ± 147.6$ cm/s
SEVR (Type 2 Diabetic Subjects [2]; Post TT, 12 weeks): 146.5 ± 16.09$ %
SVR (Systemic Vascular Resistance) (Type 2 Diabetic Subjects [2]; Post TT, 12 weeks): 1336.95 ± 251.3$ dyne · sec/cm^5
ABI (Type 2 Diabetic Subjects [2]; Pre TT): 1.02 ± 0.07
AIx (Type 2 Diabetic Subjects [2]; Pre TT): 135.5 ± 14.71%
CO (Type 2 Diabetic Subjects [2]; Pre TT): 4.13 ± 0.65 lt/min
PWV (Type 2 Diabetic Subjects [2]; Pre TT): 1522 ± 127.7 cm/s
SEVR (Type 2 Diabetic Subjects [2]; Pre TT): 135.4 ± 19.11%
SVR (Systemic Vascular Resistance) (Type 2 Diabetic Subjects [2]; Pre TT): 1519.25 ± 296.3 dyne · sec/cm^5
